Where two headings read alike, the source gives them in different places.
Assays:
[1] = system: NMDA receptor; conditions: C. Carter et al, J. Pharm Exp. Ther., 247(3), 1222-1232 (1988); cited from earlier work
[2] = target: T1, sigma receptor (Rattus norvegicus, UniProt Q9R0C9); assay: Radioreceptor assay: sigma receptor binding (displacement of [3H]-3-(+)-PPP) in crude rat brain membranes; set-up: species or system male Sprague-Dawley rats
T1 construct: crude membrane preparations were prepared as follows; Brains from male Sprague-Dawley rats; from tissue; host or cells: whole brain of male Sprague-Dawley rats, crude membranes
Experimental: To determine the effects of the compounds in a sigma receptor assay, crude membrane preparations were prepared as follows. Brains from male Sprague-Dawley rats were homogenized in 10 volumes (wt/vol) of 0.32M sucrose, using a Polytron grinder. The homogenate was centrifuged at 900×g for 10 minutes at 4° C. The supernatant was collected and centrifuged at 22,000×X g for 20 minutes at 4° C. The pellet was resuspended in 10 volumes of 50 mM Tris/HCl buffer (pH 7.4) and centrifuged at 22,000×g for 20 minutes at 4° C. The pellet was resuspended in 5 mM Tris/HCl buffer (pH 7.4) to give a final concentration of 250 mg/ml of the crude material. Incubation tubes were prepared in triplicate and contained 0.1 ml of tissue suspension, 2 nM of [^3 H]-(+)-1-propyl-3-(3-hydroxyphenyl)piperidine [^3 H]-3-(+)-PPP, and varying concentrations of the displacing ligand (0.1-1000 nM) in a final volume of 0.5 ml. After a 1 hr incubation at room temperature, the contents of the test tubes were filtered through GS filter paper which had been presoaked for at least 2 hours in 0.05% polyethyleneimine. The test tubes were rinsed three times with Tris/HCl buffer. Radioactivity on the filters was determined using liquid scintillation spectrometry and inhibition curves were calculated according to the method of Cheng and Prusoff [Biochem. Pharmacol., 22, 3099-3108 (1973)].

[3] = system: N-allylnormetazocine-induced stereotyped behavior; assay: Blockade of agonist (N-allylnormetazocine)-induced stereotyped behavior and ataxia; format: in vivo; conditions: ip, N-allylnormetazocine 15 mg/kg i.p.
Experimental: Compounds of the invention were evaluated for their ability to block the effects of N-allylnormetazocine on the induction of stereotyped behavior and ataxia. To test for antagonism, drugs are administered at varying times before i.p. administration of 15 mg/kg of N-allylnormetazocine. Behavioral and ataxia ratings are taken at 2.5 minutes, 5 minutes, and every 5 minutes thereafter until the animal returns to control behavior. […] The lowest dose of the test compound which is capable of blocking the stereotyped behavior and ataxia induced by N-allylnormetazocine was determined.

[4] = [3H]-3-(+)-PPP 2 nM, rat brain crude membranes, 1 hr, room temperature, ± SEM, Table II, read-out: Ki apparent (units ± SEM)
[5] = test compound i.p. (route given for the 1 mg/kg dose), read-out: dose which fully blocked N-allylnormetazocine-induced stereotyped behavior (lowest dose capable of blocking)

T1 sequence (Q9R0C9 whole entry): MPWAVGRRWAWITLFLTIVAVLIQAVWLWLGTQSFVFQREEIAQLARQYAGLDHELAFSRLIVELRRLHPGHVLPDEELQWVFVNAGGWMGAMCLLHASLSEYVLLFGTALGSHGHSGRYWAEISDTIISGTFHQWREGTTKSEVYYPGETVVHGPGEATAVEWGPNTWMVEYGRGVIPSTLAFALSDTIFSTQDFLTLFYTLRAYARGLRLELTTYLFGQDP

Molecule | Ki [2, 4] [nM] | minimal effective dose [3, 5] [mg/kg] | Ki [2] [nM] | also measured
1-(4-chlorophenyl)-2-[1-(4-fluorophenyl)piperidinyl]ethanol |  |  |  | found to be non-competitive NMDA receptor antagonists [1]: non-competitive NMDA receptor antagonists
c1ccc2c(c1)C1CCC2C(N2CCCCC2)C1 (centres unmarked) [Compound No. 1, 1-(2-Benzobicyclo[2.2.2]octenyl)piperidine] | 137 ± 9 |  |  | 
c1ccc2c(c1)C1CCC2C(CN2CCCCC2)C1 (centres unmarked) [Compound No. 2, 1-(2-Benzobicyclo[2.2.2]octenyl)methylpiperidine] | 11 ± 6 | 3 |  | 
CN1CCN(CC2CC3CCC2c2ccccc23)CC1 (centres unmarked) [Compound No. 3, 1-(2-Benzobicyclo[2.2.2]octenyl)methyl-4-methylpiperazine] | 4 ± 2 | 1 |  | 
CN1CCN(C2CC3CCC2c2ccccc23)CC1 (centres unmarked) [Compound No. 4, 1-(2-benzobicyclo[2.2.2]octenyl)-4-methylpiperazine] | 170 ± 40 |  |  | 
c1ccc2c(c1)C1CC(CN3CCCCC3)C2C1 (centres unmarked) [Compound No. 5, 1-(2-Benzobicyclo[2.2.1]heptenyl)methylpiperidine] |  | 1 | 9 ± 4 | 
c1ccc2c(c1)C1CC2C(N2CCCCC2)C1 (centres unmarked) [Compound No. 6, 1-(2-Benzobicyclo[2.2.1]heptenyl)piperidine] |  |  | 0.075 ± 0.06 | minimal effective dose ([3]; read-out: dose which blocked these same responses (N-allylnormetazocine-induced stereotyped behavior; not stated as fully)): 10 mg/kg
CN1CCN(CC2CC3CC2c2ccccc23)CC1 (centres unmarked) [Compound No. 7, 1-(2-benzobicyclo[2.2.1]-heptenyl)methyl-4-methylpiperazine] |  |  | 22000 ± 2000 | 
CN1CCN(C2CC3CC2c2ccccc23)CC1 (centres unmarked) [Compound No. 8, 1-(2-Benzobicyclo[2.2.1]heptenyl)-4-methylpiperazine] |  |  | 943 ± 3 | 
CC(C(O)c1ccc(O)cc1)N1CCC(Cc2ccccc2)CC1 (centres unmarked) [ifenprodil] |  |  |  | found to be non-competitive NMDA receptor antagonists [1]: non-competitive NMDA receptor antagonists

— US5089506A, “Ethanobicyclic amine derivatives for CNS disorders” (G. D. Searle & Co., priority 1990, dated 1992)
